Results taken from patent publication US9261498B2, “Biomarker for sensitivity to mTOR inhibitor therapy in kidney cancer” (The Regents of the University of California, priority 2005, dated 2016).
“Also recorded” adds a separate entry of the source.

Tests used:
ACHN-CSCG cells = assay: In vitro growth (cell counts), parental empty-vector cells; format: cell-based, human; conditions: 10 nM CCI-779, day 5
Experimental: (§1) FIGS. 1A-1E. Effects of VHL knockdown on sensitivity to CCI-779. (a) Immunoblotting of lysates derived from shRNA and control (empty vector, V) in SN12C, using antibodies against VHL (both isoforms detected), HIF-1α, HIF-2α, GLUT-1, CA-IX and β-Actin (as a loading control). (b) SN12C-CSCG and SN12C-VHLshRNA cells (1×10^5) were cultured in 10% serum rich media, in the presence of vehicle, 1 or 10 nM of CCI-779 for 5 days. Cell growth was measured by cell counts (n=3). […] (c) SN12C-CSCG (C1) and SN12C-CSCG shVHL RNA (C2) cells were injected into SCID mice at a dose of 1×10^6 cells per mouse (n=30). […] Phosphorylated-S6 protein in SN12C-CSCG and SN12C-VHL shRNA xenograft tumors treated with vehicle or 0.1 mg/kg of CCI-779 was measured by immunoblot C3 and C4). […]
(§2) For in vitro experiments, cells (5×10^4) were plated and treated with 1 and 10 nM CCI-779 (kind gift of J. Gibbons, Wyeth) or vehicle (ethanol). On day 5-post treatment, cells were trypsinized, resuspended in DMEM with 10% FBS and counted using the VI CELL counter (Beckman Coulter), according to the manufacturer's instructions. […] In vivo tumorigenicity was measured by injection of 5×10^5 SN12C-CSCG, ACHN-CSCG, SN12C-CSCG-VHLshRNAi, ACHN-CSCG-VHLshRNAi, SN12C-CSCG-VHLshRNAi-pBABE, SN12C-CSCG-VHLshRNAi-pBABE-HA-HIF-2α (P405A; P531A) cells in 100 μl of Matrigel (Collaborative Biomedical) subcutaneously into the flanks of SCID mice. […]

SN12C-CSCG cells = assay: as above; format: cell-based, human; conditions: 1 and 10 nM CCI-779, day 5, 10% serum; b106 at 10 nM
Experimental: as §1, §2

[1] = tested on: SN12C-VHLshRNA-HIF-1α mutant and SN12C-VHLshRNA-HIF-2α mutant cells; assay: In vitro growth of VHL knockdown cells expressing prolyl hydroxylation defective HIF mutants; format: cell-based, human; conditions: 1 or 10 nM CCI-779, 5 days
Experimental: (§3) FIGS. 4A-4C. Rescue of CCI-779 growth suppression by HIF-1-α and HIF-2-α prolyl hydcroxylase mutants. SN12C-CSCG-VHLshRNA cells stably infected with the prolyl hydroxylation defective cDNA mutants p-Babe-puro-HA-HIF-1α (P564A), HIF-2α (P405A; P531A) or backbone vector were treated with CCI-779 or vehicle and harvested 24 hours later. (a) Lysates were subjected to immunoblotting for HIF-1α, HIF-2α, GLUT-1, CA-IX, p-eIF4G, p-S6 and β-Actin as loading control. (b) SN12C-VHLshRNA, SN12C-VHLshRNA-HIF-1α mutant, SN12C-VHLshRNA-HIF-2α mutant cells (1×10^5) were cultured in 10% serum rich media, in the presence of vehicle, 1 or 10 nM of CCI-779 for 5 days. Cell growth was measured by cell counts (n=3). […]
as §2

[2] = tested on: SN12C-VHLshRNA-HIF-2α mutant xenograft tumors; assay: Subcutaneous xenograft tumor growth, VHL knockdown cells with HIF-2α mutant; format: in vivo, SCID mice; conditions: 0.1 mg/kg CCI-779 daily
Experimental: as §3, §2

`CO[C@H]1C[C@@H]2CC[C@@H](C)[C@@](O)(O2)C(=O)C(=O)N2CCCC[C@H]2C(=O)O[C@H]([C@H](C)C[C@@H]2CC[C@@H](OC(=O)C(C)(CO)CO)[C@H](OC)C2)CC(=O)[C@H](C)/C=C(\C)[C@@H](O)[C@@H](OC)C(=O)[C@H](C)C[C@H](C)/C=C/C=C/C=C/1C` [CCI-779] was tested, and the cell growth (ACHN-CSCG cells) was “not affected”, the cell growth (SN12C-CSCG cells) was “not affected; also recorded: not sensitive” and the “growth inhibitory effect of CCI-779 in cells expressing HIF mutants, in vitro” value [1] was “completely rescued; also recorded: reversal of both the in vitro and in vivo sensitivity”. The “growth inhibitory effect of CCI-779 in HIF mutant xenografts” value [2] was “completely rescued; also recorded: reversal of both the in vitro and in vivo sensitivity”.
